We go through two compounds from publication PMC3079579, “Solution Structure of a Repeated Unit of the ABA-1 Nematode Polyprotein Allergen of Ascaris Reveals a Novel Fold and Two Discrete Lipid-Binding Sites” (PLoS Neglected Tropical Diseases, 2011).

The target in assay [1] is T1, ABA-1A (rABA-1A, RP-ABA-1A; As-NPA-1A) (Ascaris suum, UniProt Q06811). As to the kind of experiment: fluorescence blue-shift of probe. In kind it is binding. The conditions noted are these: PBS pH 7.3, 25 °C, data not shown.
For assay [2], the target named is T1, ABA-1A (rABA-1A, RP-ABA-1A; As-NPA-1A). As to the kind of experiment: fluorescence titration (probe enhancement, […] nm). In kind it is binding.

T1 sequence (Q06811 534-662): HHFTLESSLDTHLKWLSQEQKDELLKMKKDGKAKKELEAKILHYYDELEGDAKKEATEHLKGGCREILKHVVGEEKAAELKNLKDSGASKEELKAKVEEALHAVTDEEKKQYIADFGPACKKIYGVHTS

Turning to `CCCCCCC(NS(=O)(=O)c1cccc2c(N(C)C)cccc12)C(=O)O` (racemic) [DACA, dansyl-α-aminooctanoic acid], in assay [1], the “fluorescence blue-shift of probe” value is listed as “A similar blue-shift (data not shown) was observed using dansyl-DL-α-caprylic acid (DACA)”.
For the compound `CN(C)c1cccc2c(S(=O)(=O)NCCCCCCCCCCC(=O)O)cccc12` [DAUDA, 11-(((5-(dimethylamino)-1-napthalenyl)sulfonyl)amino)undecanoic acid], the Kd in assay [2] worked out at 110 nM.
